Reference: US20220380347A1, “INHIBITORS OF CYSTEINE PROTEASES AND METHODS OF USE THEREOF” (Pardes Biosciences, Inc., priority 2020, published 2022)
Read-outs that look alike come from different tables or passages of the source.

How the values were obtained:
[1] = target: 229E Mpro (Human coronavirus 229E, UniProt P0C6X1); assay: 229E Mpro enzymatic assay (standard methods, SARS-CoV2 Mpro assay given as exemplary); type: biochemical, human coronavirus (HCov) 229E
How it was run: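 IC50 for 229E Mpro by standard methods; exemplary SARS-CoV-2 protocol used C-His6-tagged Mpro from E. coli, 25 nM enzyme, 25 μM substrate (Km 13.5 μM), in Tris-HCl pH 7.3, NaCl, EDTA, TCEP, 0.1% BSA. Inhibition normalised to no-compound and full-effect controls; four-parameter fit.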

[2] = target: COVID-19 (nCoV-2019, SARS-CoV2) Mpro (Severe acute respiratory syndrome coronavirus 2, UniProt P0DTD1); assay: COVID-19 (nCoV-2019, SARS-CoV2) Mpro enzymatic assay; type: biochemical; conditions: 25 nM Mpro, 25 μM substrate; read-out: COVID-19 Mpro IC50
[3] = test system: HCov OC43; assay: HCoV OC43 cytopathic effect (CPE) assay, CellTiter Glo; type: cell-based, human coronavirus (HCov) OC43
[4] = read-out: OC43 IC50 (uM) MEDIAN, median
[5] = Betacoronavirus 1, OC43, read-out: OC43 IC50 (uM) MEDIAN, median

Chain of 229E Mpro (P0C6X1 2966-3267): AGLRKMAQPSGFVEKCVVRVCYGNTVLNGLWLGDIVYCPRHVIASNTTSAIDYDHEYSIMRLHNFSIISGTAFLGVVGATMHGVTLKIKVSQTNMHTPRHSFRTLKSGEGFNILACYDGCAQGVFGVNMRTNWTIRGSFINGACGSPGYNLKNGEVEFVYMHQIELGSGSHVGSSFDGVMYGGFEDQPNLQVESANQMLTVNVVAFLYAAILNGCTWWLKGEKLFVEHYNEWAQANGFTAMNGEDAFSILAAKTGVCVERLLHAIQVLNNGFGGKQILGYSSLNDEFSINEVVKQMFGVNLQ

Structure (SMILES) | EC50 ([1]; 229E Mpro EC50) [nM] | IC50 [2] [nM] | IC50 ([3]; read-out: OC43 IC50 (uM) MEDIAN, median, listed as 1161 Isomer 4) [µM] | IC50 [3, 4] [µM] | IC50 [3, 5] [µM] | EC50 ([1]; read-out: 229E Mpro EC50) [nM]
CN1CC(C(=O)N(c2ccc(S(F)(F)(F)(F)F)cc2)C(C(=O)NC2CCC(F)(F)CC2)c2cncc(F)c2)N(C#N)CC1=O (single isomer, unassigned) [Compound 1161 Isomer 4, 1-cyano-N-[2-[(4,4-difluorocyclohexyl)amino]-1-(5-fluoro-3-pyridyl)-2-oxo-ethyl]-4-methyl-5-oxo-N-[4-(pentafluoro-λ6-sulfanyl)phenyl]piperazine-2-carboxamide] | 2000 to 10000 | 2000 to 10000 | 2 to 10 |  |  | 
CO[C@@H]1C[C@H](C(=O)N(c2ccc(S(F)(F)(F)(F)F)cc2)C(C(=O)N2CCCC3(COC3)C2)c2cccnc2)N(C#N)C1 (single isomer, unassigned) [Compound 1175] | < 2000 | 2000 to 10000 |  | < 2 |  | 
CO[C@@H]1C[C@H](C(=O)N(c2ccc(S(F)(F)(F)(F)F)cc2)C(C(=O)NC2C[C@@H](C)O[C@@H](C)C2)c2cccnc2)N(C#N)C1 (single isomer, unassigned) [Compound 1185] | < 2000 | < 2000 |  |  | < 2 | 
CO[C@@H]1C[C@H](C(=O)N(c2ccc(S(F)(F)(F)(F)F)cc2)C(C(=O)NC2CCC(F)(F)CC2)c2cnccc2C)N(C#N)C1 (single isomer, unassigned) [Compound 1199] | < 2000 | < 2000 |  | < 2 |  | 
CC(C(=O)NC1CCC(F)(F)CC1)(c1cccnc1)N(C(=O)[C@H]1[C@@H]2C[C@@H]2CN1C#N)c1ccc(S(F)(F)(F)(F)F)cc1 (single isomer, unassigned) [Compound 1251 Isomer 1] |  | 2000 to 10000 |  |  | 2 to 10 | < 2000
CC(C(=O)NC1CCC(F)(F)CC1)(c1cccnc1)N(C(=O)[C@H]1[C@@H]2C[C@@H]2CN1C#N)c1ccc(S(F)(F)(F)(F)F)cc1 (single isomer, unassigned) [Compound 1251 Isomer 2] | < 2000 | < 2000 |  | < 2 |  | 
CO[C@@H]1C[C@H](C(=O)N(c2ccc(C3CC3)cc2F)C(C(=O)NC2CCC(F)(F)CC2)c2cnccc2C(F)(F)F)N(C#N)C1 (single isomer, unassigned) [Compound 1309 Isomer 1] | < 2000 | < 2000 |  |  | < 2 | 
CO[C@@H]1C[C@H](C(=O)N(c2ccc(C3CC3)cc2F)C(C(=O)NC2CCC(F)(F)CC2)c2cnccc2C(F)(F)F)N(C#N)C1 (single isomer, unassigned) [Compound 1309 Isomer 2] |  | 2000 to 10000 |  | 2 to 10 |  | < 2000
N#CN1CCOC[C@@H]1C(=O)N(c1ccc(C2CC2)cc1F)C(C(=O)NC1CCC(F)(F)CC1)c1cnccc1C(F)(F)F (single isomer, unassigned) [Compound 1313 Isomer 1] | < 2000 | < 2000 |  |  | < 2 | 
N#CN1CCOC[C@@H]1C(=O)N(c1ccc(C2CC2)cc1F)C(C(=O)NC1CCC(F)(F)CC1)c1cnccc1C(F)(F)F (single isomer, unassigned) [Compound 1313 Isomer 2] |  | 2000 to 10000 |  | 2 to 10 |  | < 2000
CC(C)(C#N)C(=O)N(c1ccc(S(F)(F)(F)(F)F)cc1)C(C(=O)NC1CCC(F)(F)CC1)c1cncc(F)c1 (single isomer, unassigned) [Compound 1316 Isomer 1, 2-cyano-N-[2-[(4,4-difluorocyclohexyl)amino]-1-(5-fluoro-3-pyridyl)-2-oxo-ethyl]-2-methyl-N-[4-(pentafluoro-λ6-sulfanyl)phenyl]propanamide] | 10000 to 30000 | > 30000 |  |  | > 30 | 
CC(C)(C#N)C(=O)N(c1ccc(S(F)(F)(F)(F)F)cc1)C(C(=O)NC1CCC(F)(F)CC1)c1cncc(F)c1 (single isomer, unassigned) [Compound 1316 Isomer 2, 2-Cyano-N-[2-[(4,4-difluorocyclohexyl)amino]-1-(5-fluoro-3-pyridyl)-2-oxo-ethyl]-2-methyl-N-[4-(pentafluoro-λ6-sulfanyl)phenyl]propanamide] | > 30000 | > 30000 |  | > 30 |  | 
N#CN1C[C@H]2C[C@H]2[C@@H]1C(=O)N(c1ccc(S(F)(F)(F)(F)F)cc1)C(C(=O)NC1CCC(F)(F)CC1)c1cnccc1C(F)(F)F (single isomer, unassigned) [Compound 1318 Isomer 1] | < 2000 | < 2000 |  |  | < 2 | 
N#CN1C[C@H]2C[C@H]2[C@@H]1C(=O)N(c1ccc(S(F)(F)(F)(F)F)cc1)C(C(=O)NC1CCC(F)(F)CC1)c1cnccc1C(F)(F)F (single isomer, unassigned) [Compound 1318 Isomer 2] |  | < 2000 |  | < 2 |  | < 2000
CC(C)(C)c1ccc(N(C(=O)[C@H]2CCCN2C#N)C(C(=O)NCc2ccccn2)c2cccnc2)cc1 (stereo partly drawn) [Compound 443] | < 2000 | 2000 to 10000 |  |  | 10 to 30 | 
CN(C)CCCNC(=O)C(c1cccnc1)N(C(=O)[C@H]1CCCN1C#N)c1ccc(C(C)(C)C)cc1 (stereo partly drawn) [Compound 455] | < 2000 | 2000 to 10000 |  |  | 10 to 30 | 
CC(C)(C)c1ccc(NC2(C#N)CCCc3ccncc32)cc1 (stereo not drawn) [Compound 690a] | > 30000 | > 30000 |  |  | > 30 | 
N#CC1(Nc2ccc(S(F)(F)(F)(F)F)cc2)CCCc2ccncc21 (stereo not drawn) [Compound 690b] | > 30000 | > 30000 |  |  | > 30 | 
C[C@]1(O)CN[C@@H](C(=O)N(c2ccc(S(F)(F)(F)(F)F)cc2)C(C(=O)NC2CCC(F)(F)CC2)c2cnnc3ccccc23)C1 (stereo partly drawn) [Compound 711a] | < 2000 | < 2000 |  |  | < 2 | 
CC(C)(C)c1ccc(N(C(=O)[C@H]2C[C@@H](O)CN2C#N)C(C(=O)NC2CCCCC2)c2cccnc2)c(Cl)c1 (stereo partly drawn) [Compound 775, (2R,4R)—N-(4-(tert-butyl)-2-chlorophenyl)-1-cyano-N-(2-(cyclohexylamino)-2-oxo-1-(pyridin-3-yl)ethyl)-4-hydroxypyrrolidine-2-carboxamide] | 2000 to 10000 | 10000 to 30000 |  |  | > 30 | 
N#CN1CC(=O)NC[C@@H]1C(=O)N(c1ccc(S(F)(F)(F)(F)F)cc1)C(C(=O)NC1CCOCC1)c1cccnc1 (stereo partly drawn) [Compound 811, 1-cyano-5-oxo-N-[2-oxo-1-(3-pyridyl)-2-(tetrahydropyran-4-ylamino)ethyl]-N-[4-(pentafluoro-λ^6-sulfanyl)phenyl]piperazine-2-carboxamide] | < 2000 | < 2000 |  |  | < 2 | 
CN1C[C@H](C(=O)N(c2ccc(S(F)(F)(F)(F)F)cc2)C(C(=O)NC2CCOCC2)c2cccnc2)N(C#N)CC1=O (stereo partly drawn) [Compound 813] | < 2000 | < 2000 |  |  | < 2 | 
CC(C)(C)c1ccc(N(C(=O)C2NCC[C@H]2F)C(C(=O)NC2CCCCC2)c2cccnc2)cc1 (stereo partly drawn) [Compound 853] | 2000 to 10000 | 2000 to 10000 |  |  | 2 to 10 | 
CC(C)(C)c1ccc(N(C(=O)[C@H]2CCCN2C#N)C(C(=O)N2CC(=O)C2)c2cccnc2)cc1 (stereo partly drawn) [Compound 946b, (2R)—N-(4-(tert-butyl)phenyl)-1-cyano-N-(2-oxo-2-(3-oxoazetidin-1-yl)-1-(pyridin-3-yl)ethyl)pyrrolidine-2-carboxamide] | 2000 to 10000 | 10000 to 30000 |  |  | 10 to 30 | 
CC(C)(C)c1ccc(N(C(=O)[C@H]2CCCN2C#N)C(C(=O)N2CC(O)C2)c2cccnc2)cc1 (stereo partly drawn) [Compound 950, (2R)—N-(4-(tert-butyl)phenyl)-1-cyano-N-(2-(3-hydroxyazetidin-1-yl)-2-oxo-1-(pyridin-3-yl)ethyl)pyrrolidine-2-carboxamide] | 2000 to 10000 | 2000 to 10000 |  |  | 10 to 30 | 
CC(C)(C)OC(=O)N1CCN(C(=O)C(c2cccnc2)N(C(=O)[C@H]2CCCN2C#N)c2ccc(C(C)(C)C)cc2)CC1 (stereo partly drawn) [Compound 954b] | 2000 to 10000 | 2000 to 10000 |  |  | 2 to 10 | 
CN1CN(C(=O)C(c2cccnc2)N(C(=O)[C@H]2CCCN2C#N)c2ccc(C(C)(C)C)cc2)CC1=O (stereo partly drawn) [Compound 962, (2R)—N-(4-(tert-butyl)phenyl)-1-cyano-N-(2-(3-methyl-4-oxoimidazolidin-1-yl)-2-oxo-1-(pyridin-3-yl)ethyl)pyrrolidine-2-carboxamide] | 2000 to 10000 | 10000 to 30000 |  |  | 10 to 30 | 
CC(C)(C)c1ccc(N(C(=O)[C@H]2CCCN2C#N)C(C(=O)N2CCC(N)CC2)c2cccnc2)cc1 (stereo partly drawn) [Compound 966] | > 30000 | > 30000 |  |  | > 30 | 
